Results published in publication PMC6367500, “18β-glycyrrhetyl-3-O-sulfate would be a causative agent of licorice-induced pseudoaldosteronism” (Scientific Reports, 2019).

Experiments:
[1] = parameters: method as in PMID 17331546; conditions: guinea pigs; cited from earlier work
[2] = Biliary excretion of GA metabolites in SD rats injected i.v. with GA; assay type: in vivo; conditions: GA 0.2 mg/kg i.v.
Method: Figure 3 Pharmacokinetic profiles of GL metabolites in SD rats (A,C,E,F) and EHBRs (B,D) after the administration of GA. GA (200 mg/kg) was administered orally to anesthetized SD rats or EHBRs, and plasma and urine were collected for 12 h (A–D). GA (0.2 mg/kg) was intravenously injected into anesthetized SD rats in which the biliary tract was cannulated. Then, bile samples were collected for 4 h (E). GA (0.2 mg/kg) was intravenously injected into conscious SD rats, and the feces was collected for 24 h. […] Since the determined lavels of 3MGA for B and D, 3 for C, GA for D, and all compounds except for 3 for E were relatively low; their magnified versions of their graphs are shown at the top or as an inside of each graph. The concentrations of GA metabolites were measured by LC-MS/MS, and data are plotted as mean ± S.E. (n = 4 for A–D,F; n = 3 for E).
GA, 3MGA, and compounds 1–3 were gradually excreted into the bile in SD rats injected i.v. with GA (0.2 mg/kg) and the accumulation of 3 in the bile at 4 h was 12-, 1.5 × 10^3-, 32-, and 15-fold those of GA, 3MGA, 1, and 2, respectively (Fig. 3E). […] GA, 3, and 2 were found in the feces of SD rats collected for 24 h after the i.v. injection of GA (0.2 mg/kg), while 3MGA and 1 were not found in the feces (Fig. 3F).
Female SD rats or EHBRs (9-week-old) were anesthetized by an intraperitoneal (i.p.) injection of urethane (1 g/kg) and their jugular veins were exposed. GA suspended in 0.5% CMC was then administered orally (200 mg/kg) to the unconscious rats, and blood samples were collected from the jugular vein; urine samples were collected using a metabolic cage at an appropriate time over a 12-h period. […] Feces were homogenized in phosphate-buffered saline (PBS; 0.15 M, pH 7.2), centrifuged (1.2 × 10^4 g, 10 min), and the supernatants were collected. After 1 week as a washout period, female SD rats were anesthetized by an i.p. injection of urethane (1 g/kg) and their biliary tract was cannulated. GA (0.2 mg/kg) was injected into the jugular vein, and the bile was collected every hour for 4 h. Aliquots (10 µl) of plasma, urine, homogenate of feces, or bile were mixed with 20 µl of subtilisin (0.91 U/ml) and incubated at 37 °C for 30 min, followed by the addition of 70 µl of astragaloside IV solution (1 µg/ml in ethanol containing 0.5% formic acid, used as internal standard), and kept at −20 °C for 30 min. […] The transitions (precursor to daughter) monitored and retention times were as follows: ESI(+) 743.4 to 567.5 m/z for compound 1 (5.5 min), ESI(−) 565.5 to 96.5 m/z for 2 (6.2 min), ESI(−) 549.5 to 96.5 m/z for 3 (8.1 min), ESI(+) 647.6 to 453.6 m/z for 3MGA (9.2 min), ESI(+) 471.3 to 91.0 m/z for GA (8.8 min), ESI(+) 823.5 to 453.6 m/z for GL (10.8 min), and ESI(+) 785.4 to 143.0 m/z for astragaloside IV (3.0 min). Linear regressions over the concentration range of 32 nM to 20 µM for each compound were examined using the peak-area ratio of the compounds to their internal standards and the least-squares method (r^2 > 0.98).

Row | SMILES | hypokalemia after i.v. injection [1] | rank among GA metabolites eliminated into bile [2] | accumulation in bile at 4 h relative to that of 1 ([2]; biliary tract cannulated) [fold] | accumulation in bile at 4 h relative to that of 2 ([2]; biliary tract cannulated) [fold] | accumulation in bile at 4 h relative to that of 3MGA ([2]; biliary tract cannulated) | accumulation in bile at 4 h relative to that of GA ([2]; biliary tract cannulated) [fold]
1 | CC1(C)[C@@H](O[C@@H]2O[C@H](C(=O)O)[C@@H](O)[C@H](O)[C@H]2O)CC[C@]2(C)[C@H]3C(=O)C=C4[C@@H]5C[C@@](C)(C(=O)O)CC[C@]5(C)CC[C@@]4(C)[C@]3(C)CC[C@@H]12 [3MGA, 3-monoglucuronyl glycyrrhetinic acid, reference compound] | caused hypokalemia | – | – | – | – | –
2 | CC1(C)[C@@H](OS(=O)(=O)O)CC[C@]2(C)[C@H]3C(=O)C=C4[C@@H]5C[C@@](C)(C(=O)O)CC[C@]5(C)CC[C@@]4(C)[C@]3(C)CC[C@@H]12 [compound 3, 18β-glycyrrhetyl-3-O-sulfate] | – | major metabolite of GA eliminated into the bile | 32 | 15 | 1.5 × 10^3 fold | 12
